Literature values in US7217431B2, “Controlled agglomeration” (LifeCycle Pharma A/S, priority 2001, dated 2007).
Like-named read-outs stand apart in the source and are kept apart here.

Row | SMILES | Bioavailability (Table 2, in words) | Bioavailability (in vivo)
1 | CC(=O)OC[C@H]1O[C@@H]([S-])[C@H](OC(C)=O)[C@@H](OC(C)=O)[C@@H]1OC(C)=O.CCP(CC)CC.[Au+] [Auranofin] |  | Low (15–25%)
2 | C#C[C@]1(O)CC[C@H]2[C@@H]3CCC4=Cc5oncc5C[C@]4(C)[C@H]3CC[C@@]21C [Danazol] | Low | 

The next lines start with results.

Row | Bioavailability (Table 2, in words) | SMILES | Bioavailability (in vivo)
3 | Low–moderate | COc1ccc(CCN2CCC(Nc3nc4ccccc4n3Cc3ccc(F)cc3)CC2)cc1 [Astemizole] | 
4 | Low | CC1CC(OC(=O)C(O)c2ccccc2)CC(C)(C)C1 (centres unmarked) [Cyclandelate] | 
5 | Low | OCCN1CCN(CCCN2c3ccccc3Sc3ccc(Cl)cc32)CC1 [Perphenazine] | 
